Measured values as given in patent US20230111310A1, “CARBOXYLIC ACID DERIVATIVE-SUBSTITUTED IMINO ARYL COMPOUND, PREPARATION METHOD THEREFOR, HERBICIDAL COMPOSITION AND USE THEREOF” (Qingdao Kingagroot Chemical Compound Co., Ltd., priority 2020, published 2023).

Columns and labels:
Format in all cases: in vivo
[1] = test system: Abutilon theophrasti; test: Weeding effect in pre-emergence stage; settings: 30 g/ha, 4 weeks
Procedure, shortened: (§1)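 Pots were kept in the greenhouse for 4 weeks and then rated for growth control on activity-level criteria. Spraying took place immediately after sowing at application rates of 500 to 7.5 g/ha, using an acetone/tween 80 formulation diluted with water, on seeds under 0.5-2 cm of soil.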

[2] = test system: Veronica didyma Tenore; test: Weeding effect in pre-emergence stage; settings: 30 g/ha, 4 weeks
Procedure, shortened: as §1

[3] = test system: Amaranthus retroflexus; test: Weeding effect in pre-emergence stage; settings: 30 g/ha, 4 weeks
Procedure, shortened: as §1

[4] = test system: Descurainia sophia; test: Weeding effect in pre-emergence stage; settings: 30 g/ha, 4 weeks
Procedure, shortened: as §1

[5] = test system: Capsella bursa-pastoris; test: Weeding effect in pre-emergence stage; settings: 30 g/ha, 4 weeks
Procedure, shortened: as §1

[6] = test system: Setaria viridis; test: Weeding effect in pre-emergence stage; settings: 30 g/ha, 4 weeks
Procedure, shortened: as §1

[7] = test system: Rice; test: Transplanted rice safety evaluation; settings: transplanted japonica rice, 30 g/ha, 21 days after treatment
Description: (§2) The activity level criteria for plant damage (i.e., growth control rate) are as follows:
In addition, the rice field soil that loaded into the 1/1,000,000 ha pot was leveled to keep water storage at 3-4 cm depth. The 5 leaf stage rice (japonica rice) was transplanted at 3 cm of transplanting depth the next day. The compound of the present invention was treated by the same way after 5 days of transplantation.
(§3) The fertility condition of Echinochloa crusgalli. Scirpus juncoides. Bidens tripartita L., Monochoria vaginalis, Leptochloa chinensis and Sagittaria trifolia 14 days after the treatment of the compound of the invention and the fertility condition of rice 21 days after the treatment of the compound of the invention respectively with the naked eye. Evaluate the weed control effect with the above activity standard level. Many compounds show excellent activity and selectivity.

[8] = test system: Abutilon theophrasti; test: Weeding effect in post-emergence stage; settings: Dose 15 g/ha
Procedure, shortened: (§4)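 Compound, dissolved in acetone and diluted in water with Tween 80 plus methyl oleate EC (1.5 liter/ha), is sprayed onto 2-3 leaf potted plants. Rates span 7.5–500 g/ha. After 3 weeks of greenhouse culture, weeding effect is counted as the mean of triplicates.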

[9] = test system: Alopecurus japonicus; test: Weeding effect in post-emergence stage; settings: Dose 15 g/ha
Procedure, shortened: as §4

[10] = test system: Eleusine indica; test: Weeding effect in post-emergence stage; settings: Dose 15 g/ha
Procedure, shortened: as §4

[11] = test system: Digitaria sanguinalis; test: Weeding effect in post-emergence stage; settings: Dose 15 g/ha
Procedure, shortened: as §4

[12] = test system: Setaria viridis; test: Weeding effect in post-emergence stage; settings: Dose 15 g/ha
Procedure, shortened: as §4

[13] = test system: Echinochloa crusgalli; test: Weeding effect in post-emergence stage; settings: Dose 15 g/ha
Procedure, shortened: as §4

[14] = test system: cotton; test: Pre-emergence stage, crop selectivity; settings: 30 g/ha, 4 weeks
Procedure, shortened: as §1

[15] = test system: corn; test: Pre-emergence stage, crop selectivity; settings: 30 g/ha, 4 weeks
Procedure, shortened: as §1

[16] = test system: Peanut; test: Pre-emergence stage, crop selectivity; settings: 30 g/ha, 4 weeks
Procedure, shortened: as §1

[17] = test system: Soybeans; test: Pre-emergence stage, crop selectivity; settings: 30 g/ha, 4 weeks
Procedure, shortened: as §1

[18] = test system: Leptochloa chinensis; test: Weed control effect evaluation in rice field; settings: rice field pot, 30 g/ha, 14 days after treatment
From the text: as §2
(§5) Rice field soil was loaded into a 1/1,000,000 ha pot. The seeds of Echinochloa crusgalli. Scirpus juncoides. Bidens tripartita L., Monochoria vaginalis, and Leptochloa chinensis were sowed and gently covered with soil, then left to stand still in greenhouse in the state of 0.5-1 cm of water storage. The tuber of Sagittaria trifolia was planted in the next day or 2 days later. It was kept at 3-4 cm of water storage thereafter. The weeds were treated by dripping the WP or SC water diluents prepared according to the common preparation method of the compounds of the present invention with pipette homogeneously to achieve specified effective amount when Echinochloa crusgalli. Scirpus juncoides, Bidens tripartita L., Monochoria vaginalis, and Leptochloa chinensis reached 0.5 leaf stage and Sagittaria trifolia reached the time point of primary leaf stage.
as §3

[19] = test system: Monochoria vaginalis; test: Weed control effect evaluation in rice field; settings: rice field pot, 30 g/ha, 14 days after treatment
From the text: as §2, §5, §3

[20] = test system: Scirpus juncoides; test: Weed control effect evaluation in rice field; settings: rice field pot, 30 g/ha, 14 days after treatment
From the text: as §2, §5, §3

[21] = fresh weight control rate level
[22] = level of fresh weight growth control rate

## CC(C)N(C)S(=O)(=O)NC(=O)[C@@H](C)O/N=C/c1cc(-n2c(=O)cc(C(F)(F)F)n(C)c2=O)c(F)cc1Cl [421(R)]
[1]
  activity level (growth control rate) Abutilon theophrasti: 5 (Level 5: growth control rate is above 85%)
[2]
  activity level (growth control rate) Veronica didyma Tenore: 5 (Level 5: growth control rate is above 85%)
[3]
  activity level (growth control rate) Amaranthus retroflexus: 5 (Level 5: growth control rate is above 85%)
[4]
  activity level (growth control rate) Descurainia sophia: 5 (Level 5: growth control rate is above 85%)
[5]
  activity level (growth control rate) Capsella bursa-pastoris: 5 (Level 5: growth control rate is above 85%)
[6]
  activity level (growth control rate) Setaria viridis: 5 (Level 5: growth control rate is above 85%)
[7]
  plant damage level Rice: 0 (Level 0: growth control rate is less than 5%)
[8]; [21]
  Weeding effect in post-emergence stage, Abutilon theophrasti (level): 5 (Level 5: growth control rate is above 85%)
[9]; [21]
  Weeding effect in post-emergence stage, Alopecurus japonicus (level): 5 (Level 5: growth control rate is above 85%)
[10]; [21]
  Weeding effect in post-emergence stage, Eleusine indica (level): 5 (Level 5: growth control rate is above 85%)
[11]; [21]
  Weeding effect in post-emergence stage, Digitaria sanguinalis (level): 5 (Level 5: growth control rate is above 85%)
[12]; [21]
  Weeding effect in post-emergence stage, Setaria viridis (level): 5 (Level 5: growth control rate is above 85%)
[13]; [21]
  Weeding effect in post-emergence stage, Echinochloa crusgalli (level): 5 (Level 5: growth control rate is above 85%)
[14]
  plant damage level Cotton: 0 (Level 0: growth control rate is less than 5%)
[15]
  plant damage level Corn: 0 (Level 0: growth control rate is less than 5%)
[16]
  plant damage level Peanut: 0 (Level 0: growth control rate is less than 5%)
[17]
  plant damage level Soybeans: 0 (Level 0: growth control rate is less than 5%)
[18]
  activity level (weed control effect) Leptochloa chinensis: 5 (Level 5: growth control rate is above 85%)
[19]
  activity level (weed control effect) Monochoria vaginalis: 5 (Level 5: growth control rate is above 85%)
[20]
  activity level (weed control effect) Scirpus juncoides: 5 (Level 5: growth control rate is above 85%)

## C[C@@H](O/N=C/c1cc(-n2c(=O)cc(C(F)(F)F)n(C)c2=O)c(F)cc1Cl)C(=O)OCC(F)(F)F [218(R)]
[1]
  activity level (growth control rate) Abutilon theophrasti: 5 (Level 5: growth control rate is above 85%)
[2]
  activity level (growth control rate) Veronica didyma Tenore: 5 (Level 5: growth control rate is above 85%)
[3]
  activity level (growth control rate) Amaranthus retroflexus: 5 (Level 5: growth control rate is above 85%)
[4]
  activity level (growth control rate) Descurainia sophia: 5 (Level 5: growth control rate is above 85%)
[5]
  activity level (growth control rate) Capsella bursa-pastoris: 5 (Level 5: growth control rate is above 85%)
[6]
  activity level (growth control rate) Setaria viridis: 5 (Level 5: growth control rate is above 85%)
[7]
  plant damage level Rice: 0 (Level 0: growth control rate is less than 5%)
[8]; [22]
  Weeding effect in post-emergence stage, Abutilon theophrasti: 5 (Level 5: growth control rate is above 85%)
[9]; [22]
  Weeding effect in post-emergence stage, Alopecurus japonicus: 5 (Level 5: growth control rate is above 85%)
[10]; [22]
  Weeding effect in post-emergence stage, Eleusine indica: 5 (Level 5: growth control rate is above 85%)
[11]; [22]
  Weeding effect in post-emergence stage, Digitaria sanguinalis: 5 (Level 5: growth control rate is above 85%)
[12]; [22]
  Weeding effect in post-emergence stage, Setaria viridis: 5 (Level 5: growth control rate is above 85%)
[13]; [22]
  Weeding effect in post-emergence stage, Echinochloa crusgalli: 5 (Level 5: growth control rate is above 85%)
[14]
  plant damage level Cotton: 0 (Level 0: growth control rate is less than 5%)
[15]
  plant damage level Corn: 0 (Level 0: growth control rate is less than 5%)
[16]
  plant damage level Peanut: 0 (Level 0: growth control rate is less than 5%)
[17]
  plant damage level Soybeans: 0 (Level 0: growth control rate is less than 5%)
[18]
  activity level (weed control effect) Leptochloa chinensis: 5 (Level 5: growth control rate is above 85%)
[19]
  activity level (weed control effect) Monochoria vaginalis: 5 (Level 5: growth control rate is above 85%)
[20]
  activity level (weed control effect) Scirpus juncoides: 5 (Level 5: growth control rate is above 85%)
